We go through 33 compounds from patent US8609836B2, “4-aryl-2-anilino-pyrimidines” (Janssen Pharmaceutica NV, priority 2008, dated 2013).

The test system of one assay is MDA-MB-231. As to the kind of experiment: Cellular proliferation assay (Alamar blue), MDA-MB-231. As to conditions: Homo sapiens, 10% FCS, 72 hours with compound, Alamar blue 24 h, read-out: MDA/MB231 (cellular proliferation assay, Table 4) (converted). It is filed as cell-based. The essentials: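 Growth inhibition measured after 72 h incubation with compound, following 24 h pre-culture at 37° C, 5% CO2 with 10% FCS. Resazurin-based read-out at 544/590 nm after 4 h (HCT-116), 6 h (U87-MG) or 24 h (A2780, MDA-MB-231); results relative to control.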

A further assay deals with CDK4/CyclinD1 (h) (Homo sapiens, UniProt P11802). The experiment in a line: CDK4/CyclinD1 human kinase inhibition, SPA with GST-pRb substrate. It is filed as biochemical. As to conditions: read-out: CDK4 pIC50 (converted). The essentials:
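Scintillation proximity format: after EDTA/Triton stop containing glutathione SPA beads, 33P incorporation was counted. The reaction ran 60 min at room temperature in Hepes pH 7.5 with NaF, MgCl2, DTT, using 2.5 μg/ml human CDK4/CyclinD1, 40 μg/ml GST-pRb substrate and 2 nM [γ-33P]ATP.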

Another assay addresses PLK2 (h) (Homo sapiens, UniProt Q9NYY3). The experiment in a line: PLK2 human kinase inhibition, SPA. The format is biochemical. As to conditions: read-out: PLK2 pIC50 (converted). The method, boiled down: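 33P incorporation into a biotinylated peptide (2 μM) was captured on streptavidin PVT beads and imaged on Leadseeker. Enzyme at 30 μg/ml, ATP 0.1 μM with 2 nM [γ-33P]ATP, Hepes pH 8.0 with MnCl2 and DTT. Incubation was 20 min at room temperature.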

The target of another assay is PLK1 T210D (h) (Homo sapiens, UniProt P53350, T210D). As to the kind of experiment: PLK1 human kinase inhibition, SPA. It is filed as biochemical. To be noted: read-out: PLK1 pIC50 (converted). The essentials: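 Kinase incubated 40 min at room temperature with 0.1 μM ATP (2 nM [γ-33P]ATP tracer), 2 μM biotinylated peptide, pH 8.0 Hepes buffer with 2 mM MnCl2 and 1 mM DTT; enzyme at 0.125 ng/ml. Stopped with EDTA; 33P-peptide bound to streptavidin scintillant beads and imaged.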
Chain of PLK1 T210D (h) (P53350 whole entry T210D): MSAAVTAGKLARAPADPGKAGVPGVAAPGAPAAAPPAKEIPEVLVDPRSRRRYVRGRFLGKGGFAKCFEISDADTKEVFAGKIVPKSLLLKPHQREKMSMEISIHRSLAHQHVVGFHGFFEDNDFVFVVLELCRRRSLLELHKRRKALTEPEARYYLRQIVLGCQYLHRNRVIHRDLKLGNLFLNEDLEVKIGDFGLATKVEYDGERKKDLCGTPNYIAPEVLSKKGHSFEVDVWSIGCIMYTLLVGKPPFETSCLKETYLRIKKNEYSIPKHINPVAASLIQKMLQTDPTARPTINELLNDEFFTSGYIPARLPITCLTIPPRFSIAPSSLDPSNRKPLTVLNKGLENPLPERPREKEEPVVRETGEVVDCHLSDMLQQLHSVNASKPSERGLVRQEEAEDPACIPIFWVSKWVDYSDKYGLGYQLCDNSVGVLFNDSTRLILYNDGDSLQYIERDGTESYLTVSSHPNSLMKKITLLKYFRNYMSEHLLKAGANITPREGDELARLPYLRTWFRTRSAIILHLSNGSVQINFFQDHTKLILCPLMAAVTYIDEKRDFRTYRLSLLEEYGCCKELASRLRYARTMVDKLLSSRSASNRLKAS

Chain of CDK4/CyclinD1 (h) (P11802 whole entry): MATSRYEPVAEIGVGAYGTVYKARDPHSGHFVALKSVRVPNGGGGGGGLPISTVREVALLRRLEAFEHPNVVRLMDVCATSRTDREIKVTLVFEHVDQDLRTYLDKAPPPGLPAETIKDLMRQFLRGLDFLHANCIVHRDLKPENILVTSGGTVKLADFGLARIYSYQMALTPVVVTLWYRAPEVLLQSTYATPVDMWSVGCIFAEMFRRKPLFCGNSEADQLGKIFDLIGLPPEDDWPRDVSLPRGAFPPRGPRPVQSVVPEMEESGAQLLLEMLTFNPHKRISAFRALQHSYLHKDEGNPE
Chain of CDK4/CyclinD1 (h) (P24385 whole entry partner): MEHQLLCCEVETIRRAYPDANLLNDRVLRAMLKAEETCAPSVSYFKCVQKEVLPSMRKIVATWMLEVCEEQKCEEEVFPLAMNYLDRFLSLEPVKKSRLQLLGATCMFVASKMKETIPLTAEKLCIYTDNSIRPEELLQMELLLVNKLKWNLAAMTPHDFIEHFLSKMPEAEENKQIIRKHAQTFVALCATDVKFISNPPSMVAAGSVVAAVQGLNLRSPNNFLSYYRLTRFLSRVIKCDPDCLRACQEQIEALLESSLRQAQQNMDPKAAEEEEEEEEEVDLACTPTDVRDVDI
Chain of PLK2 (h) (Q9NYY3 whole entry): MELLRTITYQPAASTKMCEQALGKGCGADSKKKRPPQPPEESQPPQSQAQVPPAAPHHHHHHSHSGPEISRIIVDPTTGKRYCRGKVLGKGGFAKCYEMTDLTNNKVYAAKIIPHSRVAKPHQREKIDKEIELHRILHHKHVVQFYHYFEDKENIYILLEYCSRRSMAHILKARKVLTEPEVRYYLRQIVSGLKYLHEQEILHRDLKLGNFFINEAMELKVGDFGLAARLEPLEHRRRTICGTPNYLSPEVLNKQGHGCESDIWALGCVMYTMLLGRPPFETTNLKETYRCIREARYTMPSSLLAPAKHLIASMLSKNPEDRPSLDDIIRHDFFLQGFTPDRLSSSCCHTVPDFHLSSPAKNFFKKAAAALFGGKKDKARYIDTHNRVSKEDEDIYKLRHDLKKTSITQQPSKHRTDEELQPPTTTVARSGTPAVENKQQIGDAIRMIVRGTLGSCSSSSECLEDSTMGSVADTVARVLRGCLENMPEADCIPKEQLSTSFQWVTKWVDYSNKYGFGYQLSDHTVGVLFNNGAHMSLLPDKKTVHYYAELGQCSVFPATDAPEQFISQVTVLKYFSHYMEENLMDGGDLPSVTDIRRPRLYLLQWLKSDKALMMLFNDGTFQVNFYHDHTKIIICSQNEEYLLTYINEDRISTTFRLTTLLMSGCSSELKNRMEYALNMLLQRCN

In the case of `C[C@@H]1NCc2cc(ccc2N2CCOCC2)Nc2nccc(n2)-c2ccc(cc2)OCCCNC1=O` [Compound 5], the IC50 in the assay with MDA-MB-231 is more than 10 µM; on CDK4/CyclinD1 (h), 1.29 µM; on PLK2 (h), more than 10 µM; at PLK1 T210D (h) it was more than 10 µM.

Take `COc1ccc2cc1CN(C)CCNC(=O)C1CCN(CC1)Cc1cc(cc(N3CCOCC3)c1)Nc1nccc-2n1` [Compound 77]: the IC50 with MDA-MB-231, at CDK4/CyclinD1 (h), on PLK2 (h) and at PLK1 T210D (h) was more than 10 µM each time.

Regarding `COc1ccc2cc1CN1CCN(CC1)CC(=O)N(C)CCN(C)c1ccc(cn1)-c1ccnc(n1)N2` [Compound 14], the IC50 with MDA-MB-231, at CDK4/CyclinD1 (h), at PLK2 (h) and on PLK1 T210D (h) was more than 10 µM throughout.

`CN1CCCNC(=O)[C@@H]2CCCN2Cc2cc(cc(N3CCOCC3)c2)Nc2nccc(n2)-c2ccc(cc2)C1` [Compound 16]: the IC50 in the assay with MDA-MB-231, on CDK4/CyclinD1 (h), on PLK2 (h) and on PLK1 T210D (h) was more than 10 µM each time.

In the case of `COc1ccc2cc1CN1CCC(CC1)C(=O)N(C)CCN(C)c1ccc(cn1)-c1ccnc(n1)N2` [Compound 4], the IC50 with MDA-MB-231 is more than 10 µM; at CDK4/CyclinD1 (h), 1.91 µM; on PLK2 (h) it was more than 10 µM; at PLK1 T210D (h) it was more than 10 µM.

Regarding `CN1CCNC(=O)CN2CCN(CC2)Cc2cc(cc(N3CCOCC3)c2)Nc2nccc(n2)-c2ccc(cc2)C1` [Compound 135], the IC50 in the assay with MDA-MB-231, on CDK4/CyclinD1 (h), on PLK2 (h) and on PLK1 T210D (h) was more than 10 µM in each case.

With `O=C(NC1CCOCC1)c1ccc2cc1CN1CCC[C@H]1C(=O)NCc1cccc(c1)-c1ccnc(n1)N2` [Compound 46], the IC50 with MDA-MB-231 was more than 10 µM; on CDK4/CyclinD1 (h), 5.75 µM; at PLK2 (h) it was more than 10 µM; on PLK1 T210D (h), more than 10 µM.

For `CN(C)CCNC(=O)c1ccc2cc1CN1CCC[C@H]1C(=O)NCc1cccc(c1)-c1ccnc(n1)N2` [Compound 42], the IC50 with MDA-MB-231 is 1.91 µM; on CDK4/CyclinD1 (h), 0.457 µM; on PLK2 (h), more than 10 µM; on PLK1 T210D (h), more than 10 µM.

Consider `O=C1NCc2cccc(c2)-c2ccnc(n2)Nc2cc(CNC3CCCCC3)cc(c2)CN2CCC[C@@H]12` [Compound 36], for which the IC50 is 1.82 µM with MDA-MB-231, 1.2 µM on CDK4/CyclinD1 (h), more than 10 µM at PLK2 (h) and more than 10 µM on PLK1 T210D (h).

With `CN1CCNC(=O)C2CCN(CC2)Cc2cc(cc(N3CCOCC3)c2)Nc2nccc(n2)-c2ccc(cc2)C1` [Compound 68], the IC50 with MDA-MB-231, on CDK4/CyclinD1 (h), on PLK2 (h) and on PLK1 T210D (h) was more than 10 µM each time.

As for `CN1CCCNC(=O)[C@@H]2CCCN2Cc2cccc(c2)Nc2nccc(n2)-c2ccc(cc2)C1` [Compound 173], the IC50 in the assay with MDA-MB-231, on CDK4/CyclinD1 (h), at PLK2 (h) and on PLK1 T210D (h) was more than 10 µM each time.

Regarding `COc1ccc2cc1CN(C)CCCNC(=O)C1CCN(CC1)Cc1cccc(c1)Nc1nccc-2n1` [Compound 81], the IC50 in the assay on MDA-MB-231, on CDK4/CyclinD1 (h), at PLK2 (h) and on PLK1 T210D (h) was more than 10 µM each time.

For the compound `O=C1NCCCOc2cccc(c2)-c2ccnc(n2)Nc2ccc(N3CCOCC3)c(c2)CN[C@H]1CO` [Compound 89], the IC50 with MDA-MB-231 is more than 10 µM; on CDK4/CyclinD1 (h), 3.63 µM; on PLK2 (h), more than 10 µM; at PLK1 T210D (h), more than 10 µM.

In the case of `C[C@H]1NCc2cc(ccc2N2CCOCC2)Nc2nccc(n2)-c2ccc(cc2)OCCCNC1=O` [Compound 86], the IC50 in the assay on MDA-MB-231 is more than 10 µM; on CDK4/CyclinD1 (h), 0.49 µM; at PLK2 (h), more than 10 µM; on PLK1 T210D (h) it was more than 10 µM.

As to `CN1CCCNC(=O)C2CCN(CC2)Cc2cc(cc(N3CCOCC3)c2)Nc2nccc(n2)-c2ccc(cc2)C1` [Compound 72], the IC50 in the assay on MDA-MB-231, at CDK4/CyclinD1 (h), at PLK2 (h) and on PLK1 T210D (h) was more than 10 µM in each case.

Take `COc1ccc2cc1CNCCNC(=O)[C@@H]1C[C@@H](O)CN1Cc1cc(ccc1N1CCOCC1)Nc1nccc-2n1` [Compound 177]: the IC50 in the assay with MDA-MB-231, at CDK4/CyclinD1 (h), on PLK2 (h) and on PLK1 T210D (h) was more than 10 µM throughout.

As to `O=C1CN2CCN(CC2)Cc2cc(ccc2N2CCOCC2)Nc2nccc(n2)-c2cccc(c2)OCCCN1` [Compound 103], the IC50 in the assay on MDA-MB-231, at CDK4/CyclinD1 (h), at PLK2 (h) and at PLK1 T210D (h) was more than 10 µM in each case.

In the case of `O=C(NC1CCCCC1)c1ccc2cc1CN1CCC[C@H]1C(=O)NCc1cccc(c1)-c1ccnc(n1)N2` [Compound 41], the IC50 in the assay with MDA-MB-231 is more than 10 µM; on CDK4/CyclinD1 (h), 5.62 µM; on PLK2 (h) it was more than 10 µM; on PLK1 T210D (h) it was more than 10 µM.

As for `O=C1NCc2cccc(c2)-c2ccnc(n2)Nc2cc(CNC3CCOCC3)cc(c2)CN2CCC[C@@H]12` [Compound 29], the IC50 is 2.09 µM in the assay on MDA-MB-231, 1.23 µM at CDK4/CyclinD1 (h), more than 10 µM at PLK2 (h) and more than 10 µM at PLK1 T210D (h).

Turning to `COc1ccc2cc1CN(C)CCNC(=O)[C@@H]1CCCN1Cc1cccc(c1)Nc1nccc-2n1` [Compound 175], the IC50 in the assay with MDA-MB-231, at CDK4/CyclinD1 (h), on PLK2 (h) and on PLK1 T210D (h) was more than 10 µM in each case.

Turning to `O=C1CN2CCN(CC2)Cc2cc(ccc2N2CCOCC2)Nc2nccc(n2)-c2ccc(cc2)OCCN1` [Compound 9], the IC50 with MDA-MB-231 is more than 10 µM; on CDK4/CyclinD1 (h), 7.94 µM; on PLK2 (h) it was more than 10 µM; on PLK1 T210D (h), more than 10 µM.

As to `COCCNC(=O)c1ccc2cc1CN1CCC[C@H]1C(=O)NCc1cccc(c1)-c1ccnc(n1)N2` [Compound 40], the IC50 is more than 10 µM in the assay on MDA-MB-231, 1.62 µM on CDK4/CyclinD1 (h), more than 10 µM on PLK2 (h) and more than 10 µM on PLK1 T210D (h).

Regarding `COCCNCc1cc2cc(c1)Nc1nccc(n1)-c1cccc(c1)CNC(=O)[C@@H]1CCCN1C2` [Compound 33], the IC50 with MDA-MB-231 was 0.832 µM; at CDK4/CyclinD1 (h), 1.26 µM; at PLK2 (h) it was more than 10 µM; at PLK1 T210D (h), more than 10 µM.

In the case of `CN(C)Cc1cc2cc(c1)Nc1nccc(n1)-c1cccc(c1)CNC(=O)[C@@H]1CCCN1C2` [Compound 30], the IC50 with MDA-MB-231 was 0.257 µM; at CDK4/CyclinD1 (h), 0.891 µM; on PLK2 (h) it was more than 10 µM; at PLK1 T210D (h) it was more than 10 µM.

Regarding `CN1CCNC(=O)[C@@H]2CCCN2Cc2cc(Br)cc(c2)Nc2nccc(n2)-c2ccc(cc2)C1` [Compound 155], the IC50 in the assay on MDA-MB-231, on CDK4/CyclinD1 (h), on PLK2 (h) and at PLK1 T210D (h) was more than 10 µM throughout.

`O=C1NCCCNCc2ccc(cc2)-c2ccnc(n2)Nc2ccc(N3CCOCC3)c(c2)CN2C[C@H](O)C[C@@H]12` [Compound 169]: the IC50 with MDA-MB-231, on CDK4/CyclinD1 (h), at PLK2 (h) and at PLK1 T210D (h) was more than 10 µM in each case.

With `COc1ccc2cc1CN(C)CCCNC(=O)[C@@H]1CCCN1Cc1cccc(c1)Nc1nccc-2n1` [Compound 180], the IC50 in the assay on MDA-MB-231, at CDK4/CyclinD1 (h), at PLK2 (h) and at PLK1 T210D (h) was more than 10 µM throughout.

Regarding `COc1ccc2cc1CN(C)CCCNC(=O)C1CCN(CC1)Cc1cc(Br)cc(c1)Nc1nccc-2n1` [Compound 76], the IC50 in the assay with MDA-MB-231 is 6.76 µM; on CDK4/CyclinD1 (h), more than 10 µM; at PLK2 (h), more than 10 µM; on PLK1 T210D (h), more than 10 µM.

As to `COc1ccc2cc1CN(C)CCCNC(=O)[C@@H]1CCCN1Cc1cc(cc(NC(C)C)c1)Nc1nccc-2n1` [Compound 164], the IC50 in the assay with MDA-MB-231, at CDK4/CyclinD1 (h), at PLK2 (h) and on PLK1 T210D (h) was more than 10 µM throughout.

Regarding `O=C1NCCCOc2ccc(cc2)-c2ccnc(n2)Nc2ccc(N3CCOCC3)c(c2)CN2CCC1CC2` [Compound 92], the IC50 in the assay on MDA-MB-231 was 2.51 µM; at CDK4/CyclinD1 (h), 0.891 µM; on PLK2 (h), more than 10 µM; on PLK1 T210D (h), more than 10 µM.

Consider `CC(C)Nc1cc2cc(c1)Nc1nccc(n1)-c1ccc(cc1)CN(C)CCNC(=O)[C@@H]1CCCN1C2` [Compound 153], for which the IC50 with MDA-MB-231, at CDK4/CyclinD1 (h), at PLK2 (h) and on PLK1 T210D (h) was more than 10 µM throughout.

Take `COc1ccc2cc1CN(C)CCNC(=O)C1CCN(CC1)Cc1cc(cc(NC(C)C)c1)Nc1nccc-2n1` [Compound 75]: the IC50 with MDA-MB-231, at CDK4/CyclinD1 (h), at PLK2 (h) and on PLK1 T210D (h) was more than 10 µM in each case.

Take `COc1ccc2cc1CN(C)CCNC(=O)CN1CCN(CC1)Cc1cccc(c1)Nc1nccc-2n1` [Compound 147]: the IC50 in the assay with MDA-MB-231, on CDK4/CyclinD1 (h), on PLK2 (h) and on PLK1 T210D (h) was more than 10 µM throughout.
